Test results taken from paper PMC5510229, “BCAT1 controls metabolic reprogramming in activated human macrophages and is associated with inflammatory diseases” (Nature Communications, 2017).

Key:
In vivo pharmacokinetics = assay: In vivo pharmacokinetics; design: species or system ICR mice; conditions: ICR, mouse, plasma
Method: The experiment was performed by Eurofins Panlabs Inc. Briefly, fasting pharmacokinetic parameters were obtained after administration of 125 mg kg^−1 i.v. or 500 mg kg^−1 p.o ERG240 to ICR mice and blood collection at 3, 10, 30, 60, 120 and 240 min (i.v. dosing) or 10, 30, 60, 120, 240 and 360 min (p.o. dosing). Each animal was subjected to a single blood draw and 3 animals per time point were used. Parameters were obtained from non-compartmental analysis of the plasma data using WinNonlin. Experimental details are provided in Supplementary Methods. […]
In v ivo pharmaco kinetics
ICR mice that have been fasted overnight were administered 125 mg/kg ERG240 i.v. or 500 mg/kg ERG240 p.o. At predetermined time points, mice were sedated under general inhalant anaesthesia (3 % isoflurane) and 300- 400 µL of blood were collected in tubes coated with lithium heparin by cardiac puncture . The plasma was harvested after cent rifugation and kept frozen at - 20 °C until further processing. Proteins present in the plasma were precipitated b y acetonitrile. Specificall y, 50 µL of plasm a samples were trans ferred to a 9 6-well plate and 10 µL of a acetonitrile/water 50/50 (v/v) solution was added to each well. At this point, 150 μ L of 1 ng/μ L of aspirin in acetonitrile were also added as internal standard. After sample mixing and centrifugation, 100 µL supernatant were withdrawn from each well and mixed with […] w ater for HP LC -MS/MS analysis. Sample anal ysis b y HPLC -MS/MS employed a Agilent Poroshell 120 EC-C18 column 2.7μm (3.0 x 50mm) and a gradient elution with two mobile phases (A: acetonitrile/water/formic acid 99/1/0.02 (v/v/v);
B:acetonitrile/water/formic acid 1/99/0.02 (v/v/v)). A volume of […] of sample were injected into the column and the sample concentration was determined by employing calibration curves that were generated prior to sample anal ysis b y spiking drug- free plasma with specified concentrations of ERG240. The quantitation range was 5- 10000 ng/mL.
Following sample analysis, plots of plasma concentration of ERG240 vs. time were constructed. Fundamental pharmacokinetic parameters were calculated from the non-compartmental analysis of the plasma data using WinNonlin. […]
Pannus: 0=Normal; 1=Minimal infiltration of pannus in cartilage and subchondral bone; 2=Mild infiltration of pannus in cartilage with marginal zone destruction of hard tissue in affected joints; 3=Moderate infiltration of pannus in cartilage with moderate hard tissue destruction in affected joints; 4=Marked infiltration of pannus in cartilage with marked destruction of joint architecture, most joints; 5=Severe infiltration associated with total or near total destruction of joint architecture, all joints. Cartilage Damage: 0=Normal;

Water solubility = format: physicochemical

Molecule `CC(=O)C(C)CCC(=O)O` (stereo not shown) [ERG240] has an AUC(0-inf) (In vivo pharmacokinetics; IV 125 mg kg^−1, mice) of 149 µg·h/mL, an AUC(0-t) (In vivo pharmacokinetics; IV 125 mg kg^−1, mice) of 149 µg·h/mL and a C0 (In vivo pharmacokinetics; IV 125 mg kg^−1, mice) of 231 µg/mL. The MRT (In vivo pharmacokinetics; IV 125 mg kg^−1, mice) was 33 min, the clearance (In vivo pharmacokinetics; IV 125 mg kg^−1, mice) was 45.6 mL/min/kg and the half-life (In vivo pharmacokinetics; IV 125 mg kg^−1, mice) was 7.2 min. It also gave an AUC(0-inf) (In vivo pharmacokinetics; oral 500 mg kg^−1, mice) of 794 µg·h/mL, an AUC(0-t) (In vivo pharmacokinetics; oral 500 mg kg^−1, mice) of 794 µg·h/mL and a Cmax (In vivo pharmacokinetics; oral 500 mg kg^−1, mice) of 351 µg/mL. For the same molecule, the MRT (In vivo pharmacokinetics; oral 500 mg kg^−1, mice) was 74.4 min, the Tmax (In vivo pharmacokinetics; oral 500 mg kg^−1, mice) was 60 min and the bioavailability (In vivo pharmacokinetics; oral 500 mg kg^−1, mice, read-out: F (bioavailability)) was 100%. For the same molecule, the water solubility (Water solubility) was “water-soluble”.
